SMILES strings stand for the structures.

Assay [1] addresses T1, AHR (Homo sapiens, UniProt P35869).
T1 sequence (P35869 11-848): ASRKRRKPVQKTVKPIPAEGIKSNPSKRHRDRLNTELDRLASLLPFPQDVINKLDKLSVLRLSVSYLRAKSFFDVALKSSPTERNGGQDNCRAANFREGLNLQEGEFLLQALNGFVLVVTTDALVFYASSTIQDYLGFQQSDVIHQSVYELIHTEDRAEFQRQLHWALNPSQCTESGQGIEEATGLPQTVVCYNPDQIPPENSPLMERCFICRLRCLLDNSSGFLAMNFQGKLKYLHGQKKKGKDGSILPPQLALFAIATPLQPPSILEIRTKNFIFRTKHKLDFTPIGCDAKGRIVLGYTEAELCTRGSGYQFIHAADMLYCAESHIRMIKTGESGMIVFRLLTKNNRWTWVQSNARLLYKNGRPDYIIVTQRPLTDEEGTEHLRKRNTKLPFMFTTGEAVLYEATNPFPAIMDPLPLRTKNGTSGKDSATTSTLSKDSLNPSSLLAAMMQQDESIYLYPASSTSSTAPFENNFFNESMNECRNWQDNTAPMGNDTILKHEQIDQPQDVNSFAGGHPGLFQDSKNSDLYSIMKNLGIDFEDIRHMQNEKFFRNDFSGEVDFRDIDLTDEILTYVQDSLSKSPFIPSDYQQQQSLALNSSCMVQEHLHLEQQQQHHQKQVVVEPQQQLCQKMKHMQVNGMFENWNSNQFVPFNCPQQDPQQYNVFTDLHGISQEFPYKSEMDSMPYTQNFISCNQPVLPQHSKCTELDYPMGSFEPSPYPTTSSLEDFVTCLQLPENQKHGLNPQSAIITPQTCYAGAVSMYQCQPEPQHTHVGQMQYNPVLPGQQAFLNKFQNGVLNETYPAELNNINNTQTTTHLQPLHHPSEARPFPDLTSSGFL
Nature of the assay: In vitro assay 2: agonism in human cell line (transactivation assay).

In assay [2] the target is T1, AHR. Put plainly: In vitro assay 1: antagonism in human cell line (transactivation assay, kynurenic acid prestimulated). The following applies: Assay 1: AHR-luc Hum Antagonism IC50 [M], 150 μM kynurenic acid, 20 hours, firefly luciferase.
Assay [3] deals with AHR-regulated gene CYP1A1. Nature of the assay: In vitro assay 3: AHR-regulated CYP1A1 expression in human cell line (U937, qPCR). The following applies: Homo sapiens, U-937, 6 h, read-out: Assay 3: Hum CYP1A1 Antagonism IC50 [M], U937 cells, 200 μM KA, 6 hours, qPCR.
Procedure: In Vitro Assay 3: AHR-Regulated CYP1A1 Expression in Human Cell Line
To assess the AHR inhibitory activity of the substances described in this application, the ability thereof to antagonise ligand-induced AHR gene regulation in a dose-dependent manner was quantified. For this purpose, quantitative PCR analysis was used to determine expression of the AHR-regulated gene CYP1A1 in a human monocytic U937 cell line upon stimulation with 200 μM KA in the presence and absence of AHR inhibitor. U937 cells were sown at a concentration of 2×10^5 cells/well in 100 ul of growth medium (RPMI 1640, 20% FCS) in 96-well microtitre plates. CYP1A1 expression was induced with 200 μM KA (positive control) in the presence or absence of the substances for 6 hours. Human U937 cells were typically incubated with eight different concentrations of the substances (1 nM, 3 nM, 10 nM, 30 nM, 100 nM, 300 nM, 1 μM and 3 μM) and analyzed in duplicate on the same microtitre plate. After stimulation, cells were lysed with Nucleic Acid Lysis Solution (#4305895, Applied Biosystems) and RNA was isolated using the 6100 Nucleic Acid Preparation Station (Applied Biosystems) and reverse-transcribed to cDNA using SuperScript VILO cDNA synthesis kit (#11754-250, Invitrogen). Unstimulated cells were used as the negative control. Taqman probes for human CYP1A1 (Hs01054797_g1) and human HPRT (Hs02800695_m1) were used to analyze fold expression of CYP1A1 of HPRT. Quantitation was performed on a Taqman SDS7900HT.
[4] abbreviates: Assay 2: AHR-luc Hum Agonism IC50 [M], no kynurenic acid, 20 hours, firefly luciferase.

For the compound `C[C@H](O)[C@H](C)NC(=O)c1cc(-c2ccc(Cl)cc2)nn(-c2cccc(F)c2)c1=O` [Example 114, 6-(4-Chlorophenyl)-2-(3-fluorophenyl)-N-[(2S,3S)-3-hydroxybutan-2-yl]-3-oxo-2,3-dihydropyridazine-4-carboxamide], the results for the IC50 in assay [1] (setting [4]), in assay [2] and in assay [3] were more than 2e-05 M, 2.3e-08 M and 5.27e-08 M, respectively.

Regarding `O=C(N[C@H]1CCC[C@@H]1O)c1cc(-c2ccc(Cl)cc2)nn(-c2cccc(F)c2)c1=O` [Example 115, 6-(4-Chlorophenyl)-2-(3-fluorophenyl)-N-[(1S,2S)-2-hydroxycyclopentyl]-3-oxo-2,3-dihydropyridazine-4-carboxamide], the half-inhibitory concentration (IC50) in assay [1] (setting [4]) was more than 2e-05 M; in assay [2] it was 2.72e-08 M; in assay [3], 1.31e-08 M.

With `CC(O)C(C)NC(=O)c1cc(-c2ccc(Cl)cc2)nn(-c2cccc(F)c2)c1=O` (stereo not drawn) [Example 131, 6-(4-Chlorophenyl)-2-(3-fluorophenyl)-N-(3-hydroxybutan-2-yl]-3-oxo-2,3-dihydropyridazine-4-carboxamide], the concentration for half-maximal inhibition (IC50) in assay [1] (setting [4]) was more than 2e-05 M; in assay [2], 4.69e-08 M; in assay [3], 8.26e-08 M.

On to `O=C(N[C@@H]1CCCC[C@H]1O)c1cc(-c2ccc(Cl)cc2)nn(-c2cccc(F)c2)c1=O` [Example 164, 6-(4-Chlorophenyl)-2-(3-fluorophenyl)-N-[(1R,2R)-2-hydroxycyclohexyl]-3-oxo-2,3-dihydropyridazine-4-carboxamide], for which the figures for the IC50 in assay [1] (setting [4]), in assay [2] and in assay [3] were more than 2e-05 M, 5.96e-07 M and 2e-06 M, respectively.

In the case of `O=C(N[C@H]1COC[C@H]1O)c1cc(-c2ccc(Cl)cc2)nn(-c2cccc(F)c2)c1=O` [Example 166, 6-(4-Chlorophenyl)-2-(3-fluorophenyl)-N-[(3S,4S)-4-hydroxytetrahydrofuran-3-yl]-3-oxo-2,3-dihydropyridazine-4-carboxamide], the half-maximal inhibitory concentration (IC50) in assay [1] (setting [4]) is more than 2e-05 M; in assay [2], 4.05e-08 M; in assay [3], 4.47e-08 M.

Regarding `O=C(N[C@H]1COC[C@@H]1O)c1cc(-c2ccc(Cl)cc2)nn(-c2cccc(F)c2)c1=O` [Example 167, 6-(4-Chlorophenyl)-2-(3-fluorophenyl)-N-[(3S,4R)-4-hydroxytetrahydrofuran-3-yl]-3-oxo-2,3-dihydropyridazine-4-carboxamide], the IC50 in assay [1] (setting [4]) was more than 2e-05 M; in assay [2], 1.63e-07 M; in assay [3], 2.03e-07 M.

`CC(C)[C@@H](CO)NC(=O)c1cc(-c2ccc(OC(F)(F)F)cc2)nn(-c2cccc(F)c2)c1=O` [Example 168, 2-(3-Fluorophenyl)-N-[(2S)-1-hydroxy-3-methylbutan-2-yl]-3-oxo-6-[4-(trifluoromethoxy)phenyl]-2,3-dihydropyridazine-4-carboxamide]: the IC50 in assay [1] (setting [4]) was more than 2e-05 M; in assay [2], 6.92e-09 M; in assay [3] it was 2.16e-08 M.

Consider `O=C(NC(CO)C(F)(F)F)c1cc(-c2ccc(OC(F)(F)F)cc2)nn(-c2cccc(F)c2)c1=O` (stereo not drawn) [Example 169, 2-(3-Fluorophenyl)-3-oxo-N-(1,1,1-trifluoro-3-hydroxypropan-2-yl)-6-[4-(trifluoromethoxy)phenyl]-2,3-dihydropyridazine-4-carboxamide], for which the half-maximal inhibitory concentration (IC50) in assay [1] (setting [4]) is more than 2e-05 M; in assay [2], 1.11e-08 M; in assay [3], 1.35e-08 M.

As for `CC[C@@H](CO)NC(=O)c1cc(-c2ccc(OC(F)(F)F)cc2)nn(-c2cccc(F)c2)c1=O` [Example 172, 2-(3-Fluorophenyl)-N-[(2S)-1-hydroxybutan-2-yl]-3-oxo-6-[4-(trifluoromethoxy)phenyl]-2,3-dihydropyridazine-4-carboxamide], the IC50 in assay [1] (setting [4]) is more than 2e-05 M; in assay [2], 2.63e-08 M; in assay [3] it was 2.68e-08 M.

Turning to `C[C@@H](CO)NC(=O)c1cc(-c2ccc(OC(F)(F)F)cc2)nn(-c2cccc(F)c2)c1=O` [Example 173, 2-(3-Fluorophenyl)-N-[(2S)-1-hydroxypropan-2-yl]-3-oxo-6-[4-(trifluoromethoxy)phenyl]-2,3-dihydropyridazine-4-carboxamide], the concentration for half-maximal inhibition (IC50) was more than 2e-05 M in assay [1] (setting [4]), 3.31e-08 M in assay [2] and 9.1e-08 M in assay [3].

As for `O=C(NCC(O)C(F)(F)F)c1cc(-c2ccc(OC(F)(F)F)cc2)nn(-c2cccc(F)c2)c1=O` (stereo not drawn) [Example 182, 2-(3-Fluorophenyl)-3-oxo-N-(3,3,3-trifluoro-2-hydroxypropyl)-6-[4-(trifluoromethoxy)phenyl]-2,3-dihydropyridazine-4-carboxamide], the values for the half-inhibitory concentration (IC50) in assay [1] (setting [4]), in assay [2] and in assay [3] were more than 2e-05 M, 3.41e-08 M and 5.9e-08 M, respectively.

Regarding `C[C@H](O)[C@H](C)NC(=O)c1cc(-c2ccc(OC(F)(F)F)cc2)nn(-c2cccc(F)c2)c1=O` [Example 185, 2-(3-Fluorophenyl)-N-[(2S,3S)-3-hydroxybutan-2-yl]-3-oxo-6-[4-(trifluoromethoxy)phenyl]-2,3-dihydropyridazine-4-carboxamide], the half-maximal inhibitory concentration (IC50) in assay [1] (setting [4]) is more than 2e-05 M; in assay [2] it was 3.9e-08 M; in assay [3], 8.06e-08 M.

As to `CC(C)(CO)NC(=O)c1cc(-c2ccc(Cl)cc2)nn(-c2cccc(F)c2)c1=O` [Example 186, 6-(4-Chlorophenyl)-2-(3-fluorophenyl)-N-(1-hydroxy-2-methylpropan-2-yl)-3-oxo-2,3-dihydropyridazine-4-carboxamide], the IC50 in assay [1] (setting [4]) was more than 2e-05 M; in assay [2], 1.88e-07 M; in assay [3], 1.34e-07 M.

As for `O=C(NC1(CO)CC1)c1cc(-c2ccc(Cl)cc2)nn(-c2cccc(F)c2)c1=O` [Example 187, 6-(4-Chlorophenyl)-2-(3-fluorophenyl)-N-[1-(hydroxymethyl)cyclopropyl]-3-oxo-2,3-dihydropyridazine-4-carboxamide], the IC50 was more than 2e-05 M in assay [1] (setting [4]), 1.02e-07 M in assay [2] and 1.1e-07 M in assay [3].

Regarding `O=C(NCCCO)c1cc(-c2ccc(Cl)cc2)nn(-c2cccc(F)c2)c1=O` [Example 189, 6-(4-Chlorophenyl)-2-(3-fluorophenyl)-N-(3-hydroxypropyl)-3-oxo-2,3-dihydropyridazine-4-carboxamide], the half-inhibitory concentration (IC50) is more than 2e-05 M in assay [1] (setting [4]), 1.86e-07 M in assay [2] and 2e-06 M in assay [3].

As to `O=C(NCC1(O)CCC1)c1cc(-c2ccc(Cl)cc2)nn(-c2cccc(F)c2)c1=O` [Example 212, 6-(4-Chlorophenyl)-2-(3-fluorophenyl)-N-[(1-hydroxycyclobutyl)methyl]-3-oxo-2,3-dihydropyridazine-4-carboxamide], the figures for the half-inhibitory concentration (IC50) in assay [1] (setting [4]), in assay [2] and in assay [3] were more than 2e-05 M, 3.59e-08 M and 4.92e-08 M, respectively.

On to `O=C(NC1(CO)CCC1)c1cc(-c2ccc(Cl)cc2)nn(-c2cccc(F)c2)c1=O` [Example 213, 6-(4-Chlorophenyl)-2-(3-fluorophenyl)-N-[1-(hydroxymethyl)cyclobutyl]-3-oxo-2,3-dihydropyridazine-4-carboxamide], for which the concentration for half-maximal inhibition (IC50) in assay [1] (setting [4]) was more than 2e-05 M; in assay [2], 8.72e-08 M; in assay [3], 2.21e-07 M.

On to `CC(NC(=O)c1cc(-c2ccc(Cl)cc2)nn(-c2cccc(F)c2)c1=O)C(O)C(F)(F)F` (stereo not drawn) [Example 218, Stereoisomer no. 1 of 6-(4-chlorophenyl)-2-(3-fluorophenyl)-3-oxo-N-(4,4,4-trifluoro-3-hydroxybutan-2-yl)-2,3-dihydropyridazine-4-carboxamide], for which the half-inhibitory concentration (IC50) is more than 2e-05 M in assay [1] (read-out: Assay 2: AHR-luc Hum Agonism IC50, no kynurenic acid, 20 hours, firefly luciferase); 6.88e-08 M in assay [2]; 1.51e-07 M in assay [3].

In the case of `O=C(N[C@H](CO)Cc1ccccc1)c1cc(-c2ccc(Cl)cc2)nn(-c2cccc(F)c2)c1=O` [Example 220, (−)-6-(4-Chlorophenyl)-2-(3-fluorophenyl)-N-[(2S)-1-hydroxy-3-phenylpropan-2-yl]-3-oxo-2,3-dihydropyridazine-4-carboxamide], the 50% inhibitory concentration (IC50) in assay [1] (setting [4]) was more than 2e-05 M; in assay [2] it was 1.03e-07 M; in assay [3] it was 6e-07 M.

Regarding `COC[C@H](CO)NC(=O)c1cc(-c2ccc(Cl)cc2)nn(-c2cccc(F)c2)c1=O` [Example 229, 6-(4-Chlorophenyl)-2-(3-fluorophenyl)-N-[(2S)-1-hydroxy-3-methoxypropan-2-yl]-3-oxo-2,3-dihydropyridazine-4-carboxamide], the half-maximal inhibitory concentration (IC50) was more than 2e-05 M in assay [1] (setting [4]), 1.5e-07 M in assay [2] and 2e-06 M in assay [3].

Values taken from patent US11040035B2, “3-oxo-2,6-diphenyl-2,3-dihydropyridazine-4-carboxamides” (BAYER PHARMA AKTIENGESELLSCHAFT, priority 2016, dated 2021).
